# Results: US8119624B2, “Fused phenyl amido heterocyclic compounds” (Pfizer Inc., priority 2006, dated 2012)
# Read-outs that look alike come from different tables or passages of the source.
# Biological target: T1, Full-length glucokinase (beta cell isoform) (Homo sapiens, UniProt P35557)
# T1 construct: Full-length glucokinase (beta cell isoform) was His-tagged at N-terminus; His tag (N); made in house
# T1 sequence (P35557 1-465): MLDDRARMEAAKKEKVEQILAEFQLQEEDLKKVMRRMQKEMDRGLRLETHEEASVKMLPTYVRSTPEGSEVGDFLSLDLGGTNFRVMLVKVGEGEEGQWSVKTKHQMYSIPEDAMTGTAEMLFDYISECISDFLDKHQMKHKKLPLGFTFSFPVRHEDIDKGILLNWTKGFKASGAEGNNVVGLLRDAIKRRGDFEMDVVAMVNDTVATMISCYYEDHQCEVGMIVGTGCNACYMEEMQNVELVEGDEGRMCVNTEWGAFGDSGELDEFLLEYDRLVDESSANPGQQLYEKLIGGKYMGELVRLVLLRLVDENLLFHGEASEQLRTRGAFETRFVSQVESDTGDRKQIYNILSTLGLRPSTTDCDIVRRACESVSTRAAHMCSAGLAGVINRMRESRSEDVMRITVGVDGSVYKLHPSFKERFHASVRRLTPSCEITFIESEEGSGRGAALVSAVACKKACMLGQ
# Experiment: Glucokinase biochemical assay (PK/LDH-coupled, NADH depletion at 340 nm): % activation, EC50, % max activation
# Conditions: 5 mM glucose; for activation at 10 µM: read-out: % Activation at 10 uM; for EC50: read-out: EC50; for Emax: fitted maximum activation, read-out: % Max Activation
# Summary of the method: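 N-terminally His-tagged full-length human beta-cell glucokinase, room temperature, 5 mM glucose, 1 mM ATP, PK/LDH-coupled with 0.7 mM NADH, 1% DMSO final. Initial velocity from the 200–900 s slope of A340 decline. % activation = (Va/Vo−1)×100, measured across compound concentrations.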
# [1] = 10 uM compound, % Activation=(Va/Vo−1)×100
# [2] = compound at 10 uM, 1 mM ATP, room temperature
activation at 10 µM [1],EC50 (GK activation),Emax,activation at 10 µM [2],"EC50 (1 mM ATP, room temperature)",Emax (1 mM ATP),SMILES
213%,506 nM,192%,–,–,–,"Cn1ccc(NC(=O)c2cc(Oc3ccc(S(C)(=O)=O)cc3)c3c(c2)OC(C)(C)C3)n1 [Example 16, 4-(4-Methanesulfonyl-phenoxy)-2,2-dimethyl-2,3-dihydro-benzofuran-6-carbo-xylic acid(1-methyl-1H-pyrazol-3-yl)-amide]"
156%,203 nM,164%,–,–,–,"Cn1ccc(NC(=O)c2cc(Oc3ccc(S(C)(=O)=O)c(F)c3)c3c(c2)OC(C)(C)C3)n1 [Example 114, 4-(3-Fluoro-4-methanesulfonyl-phenoxy)-2,2-dimethyl-2,3-dihydro-benzofuran-6-carboxylic acid (1-methyl-1H-pyrazol-3-yl)-amide]"
–,–,–,32.6%,–,–,"Cc1ccc(NC(=O)c2cc(Oc3ccc(S(C)(=O)=O)cc3)c3c(c2)C(=O)N(C(C)C)C3)nc1 [Example 383, 2-Isopropyl-N-(5-methylpyridin-2-yl)-7-(4-(methylsulfonyl)-phenoxy)-3-oxoisoindoline-5-carboxamide]"
13.8%,–,–,–,–,–,"CC(C)Oc1cc(C(=O)Nc2ccccn2)cc2c1CC(Cc1ccccc1)O2 (centres unmarked) [Example 220, 2-Benzyl-4-isopropoxy-2,3-dihydro-benzofuran-6-carboxylic acid pyridin-2-ylamide]"
172%,270 nM,158%,–,–,–,"COCCN(C)C(=O)c1ccc(Oc2cc(C(=O)Nc3ccn(C)n3)cc3c2CC(C)(C)O3)cc1F [Example 64, 4-{3-Fluoro-4-[(2-methoxy-ethyl)-methyl-carbamoyl]-phenoxy}-2,2-dimethyl-2,3-dihydro-benzofuran-6-carboxylic acid(1-methyl-1H-pyrazol-3-yl)-amide]"
35%,–,–,–,–,–,"CN(C)C(=O)c1ccc(Oc2cc(C(=O)Nc3ccc(CNC4CC4)cn3)cc3c2CC(C)(C)O3)cc1F [Example 147, 4-(4-Dimethylcarbamoyl-3-fluoro-phenoxy)-2,2-dimethyl-2,3-dihydro-benzofuran-6-carboxylic acid (5-cyclopropylaminomethyl-pyridin-2-yl)-amide]"
125%,56 nM,141%,–,–,–,"Cn1ncc(NC(=O)c2cc(Oc3ccc(C(=O)N4CCC4)nc3)c3c(c2)OC(C)(C)C3)n1 [Example 169, 4-[6-(Azetidine-1-carbonyl)-pyridin-3-yloxy]-2,2-dimethyl-2,3-dihydro-benzofuran-6-carboxylic acid (2-methyl-2H-[1,2,3]triazol-4-yl)-amide]"
275%,41 nM,218%,–,–,–,"COCC1(C)Cc2c(Oc3ccc(C(=O)N4CCC4)c(F)c3)cc(C(=O)Nc3ccn(C)n3)cc2O1 (single isomer, unassigned; (-)) [Example 243, (−)-4-[4-(Azetidine-1-carbonyl)-3-fluoro-phenoxy]-2-methoxymethyl-2-methyl-2,3-dihydro-benzofuran-6-carboxylic acid (1-methyl-1H-pyrazol-3-yl)-amide]"
-0.7%,–,–,–,–,–,"Cc1ccc(NC(=O)c2cc(Oc3ccc(C(=O)N(C)C)cc3)c3oc(C)cc3c2)nc1 [Example 339, 7-{4-[(Dimethylamino)carbonyl]phenoxy}-2-methyl-N-(5-methylpyridin-2-yl)-1-benzofuran-5-carboxamide]"
69.2%,190 nM,71%,–,–,–,"CN(C)C(=O)c1ccc(Oc2cc(C(=O)Nc3ccccn3)cc3c2CC(C)(C)O3)cc1 [Example 157, 4-(4-Dimethylcarbamoyl-phenoxy)-2,2-dimethyl-2,3-dihydro-benzofuran-6-carboxylic acid pyridin-2-ylamide]"
113%,210 nM,132%,–,–,–,"Cc1cc2c(Oc3ccc(S(=O)(=O)N4CCC4)cc3)cc(C(=O)Nc3cnn(C)n3)cc2o1 [Example 298, 4-(4-(Azetidin-1-ylsulfonyl)phenoxy)-2-methyl-N-(2-methyl-2H-1,2,3-triazol-4-yl)benzofuran-6-carboxamide]"
110%,5100 nM,135%,–,–,–,"CC(Oc1cc(C(=O)Nc2ccn(C)n2)cc2c1CC(C)(C)O2)c1cnccn1 (centres unmarked) [Example 82, 2,2-Dimethyl-4-(1-pyrazin-2-yl-ethoxy)-2,3-dihydro-benzofuran-6-carboxylic acid (1-methyl-1H-pyrazol-3-yl)-amide]"
64.4%,150 nM,66%,–,–,–,"CC1(C)Cc2c(OCc3ccccc3)cc(C(=O)Nc3ccc(C(=O)O)cn3)cc2O1 [Example 77, 6-[(4-Benzyloxy-2,2-dimethyl-2,3-dihydro-benzofuran-6-carbonyl)-amino]-nicotinic acid]"
–,–,–,192%,140 nM,177%,"CNC(=O)c1c(F)cc(Oc2cc(C(=O)Nc3ccn(C)n3)cc3c2CC(C)(C)O3)cc1F [Example 400, 4-(3,5-Difluoro-4-methylcarbamoyl-phenoxy)-2,2-dimethyl-2,3-dihydro-benzofuran-6-carboxylic acid(1-methyl-1H-pyrazol-3-yl)-amide]"
72.7%,3080 nM,94.7%,–,–,–,"Cc1ccc(NC(=O)c2cc(Oc3ccc(S(C)(=O)=O)cc3)c3ccoc3c2)nc1 [Example 9, 4-(4-Methanesulfonyl-phenoxy)-benzofuran-6-carboxylic acid(5-methyl-pyridin-2-yl)-amide]"
16.7%,–,–,–,–,–,"Cn1ncc(NC(=O)c2cc(Oc3ccc(S(C)(=O)=O)cc3)c3cc(C(=O)N4CCC4)oc3c2)n1 [Example 292, 2-(Azetidin-1-ylcarbonyl)-4-[4-(methylsulfonyl)phenoxy]-N-(2-methyl-2H-1,2,3-triazol-4-yl)-1-benzofuran-6-carboxamide]"
61.9%,130 nM,68%,–,–,–,"Cc1ccc(NC(=O)c2cc(Oc3ccc(S(=O)(=O)N4CCC4)cc3)c3cc(C)oc3c2)nc1 [Example 297, 4-(4-(Azetidin-1-ylsulfonyl)phenoxy)-2-methyl-N-(5-methylpyridin-2-yl)-benzofuran-6-carboxamide]"
12%,–,–,–,–,–,"CC(CN1CCOCC1)Oc1cc(C(=O)Nc2ccn(C)n2)cc2c1CC(C)(C)O2 (centres unmarked) [Example 85, 2,2-Dimethyl-4-(1-methyl-2-morpholin-4-yl-ethoxy)-2,3-dihydro-benzofuran-6-carboxylic acid (1-methyl-1H-pyrazol-3-yl)-amide]"
32.1%,20 nM,42%,–,–,–,"Cc1ccc(NC(=O)c2cc(Oc3ccc(C(=O)N(C)C)c(F)c3)c3c(c2)OC(C)(CO)C3)nc1 (centres unmarked) [Example 239, 4-(4-Dimethylcarbamoyl-3-fluoro-phenoxy)-2-hydroxymethyl-2-methyl-2,3-dihydro-benzofuran-6-carboxylic acid (5-methyl-pyridin-2-yl)-amide]"
78.9%,4700 nM,94%,–,–,–,"Cc1ccc(C(=O)COc2cc(C(=O)Nc3ccn(C)n3)cc3c2CC(C)(C)O3)cn1 [Example 103, 2,2-Dimethyl-4-[2-(6-methyl-pyridin-3-yl)-2-oxo-ethoxy]-2,3-dihydro-benzofuran-6-carboxylic acid (1-methyl-1H-pyrazol-3-yl)-amide]"
137%,> 10000 nM,–,–,–,–,"Cc1cc2c(OC3CN(S(C)(=O)=O)C3)cc(C(=O)Nc3cnn(C)n3)cc2o1 [Example 325, 2-Methyl-4-{[1-(methylsulfonyl)azetidin-3-yl]oxy}-N-(2-methyl-2H-1,2,3-triazol-4-yl)-1-benzofuran-6-carboxamide]"
105%,950 nM,114%,–,–,–,"COc1ccnc(NC(=O)c2cc(Oc3ccc(S(C)(=O)=O)cc3)c3c(c2)OC(C)(C)C3)c1 [Example 18, 4-(4-Methanesulfonyl-phenoxy)-2,2-dimethyl-2,3-dihydro-benzofuran-6-carbo-xylic acid(4-methoxy-pyridin-2-yl)-amide]"
237%,1900 nM,236%,–,–,–,"Cn1ccc(NC(=O)c2cc(Oc3ccc(C#N)c(F)c3)c3c(c2)OC(C)(C)C3)n1 [Example 183, 4-(4-Cyano-3-fluoro-phenoxy)-2,2-dimethyl-2,3-dihydro-benzofuran-6-carboxylic acid (1-methyl-1H-pyrazol-3-yl)-amide]"
118%,310 nM,138%,–,–,–,"CN(C)C(=O)c1ccc(Oc2cc(C(=O)Nc3ccn(C)n3)cc3c2CC(C)(C)O3)c(F)c1 [Example 46, 4-(4-Dimethylcarbamoyl-2-fluoro-phenoxy)-2,2-dimethyl-2,3-dihydro-benzofuran-6-carboxylic acid(1-methyl-1H-pyrazol-3-yl)-amide]"
173%,97 nM,163%,–,–,–,"CN(C)C(=O)c1ccc(Oc2cc(C(=O)Nc3ccn(C)n3)cc3c2CC(C)(C)O3)c(Cl)c1 [Example 107, 4-(2-Chloro-4-dimethylcarbamoyl-phenoxy)-2,2-dimethyl-2,3-dihydro-benzofuran-6-carboxylic acid (1-methyl-1H-pyrazol-3-yl)-amide]"
